{"source": "patent US8389680B2", "about": "“Treatment of Aspergillus infections with alpha thymosin peptides” (SciClone Pharmaceuticals, Inc., priority 2003, dated 2013)", "key": {"murine DCs": {"system": "murine DCs", "experiment": "RT-PCR of TLR expression on DCs", "format": "cell-based", "protocol": "Synthesis and PCR of cDNA were performed with forward and reverse PCR primers and the cycles used for murine and human TLRs and HPRT. The synthesized PCR products were separated by electrophoresis on 2% agarose gel and visualized by ethidium bromide staining."}, "human TLR9": {"target": "T1, human TLR9 (Homo sapiens, UniProt Q9NR96)", "T1 construct": "expressed in transfected cells; host or cells: HEK293", "T1 sequence (Q9NR96 26-1032)": "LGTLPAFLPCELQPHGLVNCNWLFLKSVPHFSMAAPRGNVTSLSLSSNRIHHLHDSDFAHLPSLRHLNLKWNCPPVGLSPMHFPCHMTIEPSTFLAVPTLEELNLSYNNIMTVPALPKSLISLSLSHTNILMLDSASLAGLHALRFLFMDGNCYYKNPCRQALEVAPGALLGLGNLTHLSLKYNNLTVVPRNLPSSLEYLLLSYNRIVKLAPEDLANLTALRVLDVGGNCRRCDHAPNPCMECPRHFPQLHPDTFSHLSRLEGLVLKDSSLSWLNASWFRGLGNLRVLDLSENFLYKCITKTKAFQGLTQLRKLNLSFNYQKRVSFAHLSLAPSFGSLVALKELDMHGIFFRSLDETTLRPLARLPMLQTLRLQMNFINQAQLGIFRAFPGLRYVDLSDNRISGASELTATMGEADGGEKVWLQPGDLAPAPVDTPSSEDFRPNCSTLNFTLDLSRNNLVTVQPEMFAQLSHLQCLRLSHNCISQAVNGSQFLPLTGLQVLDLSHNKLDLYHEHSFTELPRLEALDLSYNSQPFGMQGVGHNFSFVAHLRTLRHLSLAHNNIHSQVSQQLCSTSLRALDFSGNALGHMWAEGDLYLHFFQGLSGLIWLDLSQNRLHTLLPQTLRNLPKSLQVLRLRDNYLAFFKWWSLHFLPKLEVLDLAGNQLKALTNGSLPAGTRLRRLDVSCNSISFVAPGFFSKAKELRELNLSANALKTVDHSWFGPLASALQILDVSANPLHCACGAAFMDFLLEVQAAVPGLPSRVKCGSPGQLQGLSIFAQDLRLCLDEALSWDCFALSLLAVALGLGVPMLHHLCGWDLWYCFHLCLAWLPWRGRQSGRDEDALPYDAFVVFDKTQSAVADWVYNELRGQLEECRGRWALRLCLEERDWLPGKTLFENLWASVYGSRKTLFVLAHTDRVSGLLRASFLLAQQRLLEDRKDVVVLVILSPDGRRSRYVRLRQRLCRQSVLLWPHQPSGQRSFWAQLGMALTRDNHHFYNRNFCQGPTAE", "experiment": "IL-8 production by TLR9-transfected HEK293 cells", "format": "cell-based", "protocol": "The human embryonic kidney cell line HEK293, wild type or stably transfected with human TLR2, TLR9 and TLR4/CD1427 were cultured in low glucose Dulbecco's modified Eagle's medium supplemented with 10% FCS, HEPES ([…]), L-glutamine ([…]), and gentamycin (50 microgram/ml). Transfectants were additionally supplemented with puromycin (100 microgram/ml). For stimulation experiments, cells were cultured at a density of 3 to 5×10^5 cells/wells in 12-well tissue culture plates overnight. Cells were washed and stimulated with 100 ng/ml TA1 either alone or together with TLR ligands for 5 h before the assessment of IL-8 production in the supernatants.\nThe levels of TNF-alpha, IL-10, IL-12 p70, IFN-alpha and IL-8 in culture supernatants were determined by Kit ELISAs. The detection limits (pg/ml) of the assays were <3 (human) and <32 (murine) for TNF-alpha, <12 (murine) and <5 (human) for IL-10, <16 (murine) and <3 (human) for IL-12 p70 and <25 (human) IL-8. For human IFN-alpha <3 ng/ml. For enumeration of cytokine-producing cells, an ELISPOT assay was used on purified CD4^+ T cells and DCs from lungs."}, "[1]": {"system": "lymphocytes and neutrophils", "experiment": "Myeloid and Th1 cell recovery in BMT mice with IA", "format": "in vivo", "from_the_text": "The treatments were as follows; in BMT-mice, TA1, at different doses administered intraperitoneally, sthymosin alpha 1, 400 microgram/kg administered intraperitoneally or human recombinant G-CSF 250 microgram/kg administered intravenously, were given daily beginning the day of the BM infusion, in concomitance with the infection and continuing for an additional 3 days. Amphotericin B was given daily for 3 days in concomitance with the infection, at a dose of 4000 microgram/kg, administered intraperitoneally. This dose would cure IA in cyclophosphamide-treated mice. Cyclophosphamide, 150 mg/kg administered intraperitoneally, was given a day before the infection. In cyclophosphamide-treated mice, 400 microgram/kg TA1 was given intraperitoneally for 5 consecutive days beginning the day of the infection. Cell surface phenotype was assessed by reacting samples with FITC- or PE-conjugated rat anti-mouse antibodies. Unrelated hisotype matched antibodies were used as control. The levels of TNF-alpha, IL-10, IL-12 p70, IFN-alpha and IL-8 in culture supernatants were determined by Kit ELISAs. The detection limits (pg/ml) of the assays were <3 (human) and <32 (murine) for TNF-alpha, <12 (murine) and <5 (human) for IL-10, <16 (murine) and <3 (human) for IL-12 p70 and <25 (human) IL-8. For human IFN-alpha <3 ng/ml. For enumeration of cytokine-producing cells, an ELISPOT assay was used on purified CD4^+ T cells and DCs from lungs. Proliferation of lung CD4^+ T lymphocytes stimulated with 10 microgram/ml Con A or heat inactivated conidia in the presence of lung DCs, was assessed by labeling with CFSE 5(6)-carboxyfluorescein diacetate succinimidyl ester."}, "[2]": {"conditions": "combined exposure to conidia and peptide"}, "[3]": {"conditions": "BMT mice, cytofluorimetric analysis"}}, "note": "“Also recorded” adds a separate entry of the source."}
{"substance": "Ac-Ser-Asp-Ala-Ala-Val-Asp-Thr-Ser-Ser-Glu-Ile-Thr-Thr-Lys-Asp-Leu-Lys-Glu-Lys-Lys-Glu-Val-Glu-Glu-Ala-Glu-Asn-O (Ac-SDAAVDTSSEITTKDLKEKKEVEEAEN-OH) [TA1, naturally occurring thymic peptide]", "values": [{"measurement": "expression of TLR5", "setting": "murine DCs; combined exposure to conidia and TA1", "value": "inhibited"}, {"measurement": "expression of TLR2", "setting": "murine DCs; [2]", "value": "still activated"}, {"measurement": "expression of TLR9", "setting": "murine DCs; [2]", "value": "still activated"}, {"measurement": "expression of TLR2", "setting": "murine DCs; peptide alone", "value": "strongly activates"}, {"measurement": "expression of TLR5", "setting": "murine DCs; peptide alone", "value": "strongly activates"}, {"measurement": "expression of TLR9", "setting": "murine DCs; peptide alone", "value": "strongly activates"}, {"measurement": "production of IL-8", "setting": "human TLR9; TA1 alone, 100 ng/ml, 5 h", "value": "directly activate; also recorded: significantly increased"}, {"measurement": "production of IL-8", "setting": "human TLR9; in response to the TLR9 ligand CpG", "value": "significantly increased"}, {"measurement": "frequency of Th1 cells (producing IFN-gamma)", "setting": "[1]; BMT mice treated with TA1", "value": "increased; also recorded: higher"}, {"measurement": "frequency of Th2 cells (producing IL-4)", "setting": "[1]; BMT mice treated with TA1", "value": "decreased; also recorded: lower"}, {"measurement": "function of lung CD4+ T lymphocytes (antigen-specific proliferation and IFN-gamma production)", "setting": "[1]; BMT mice treated with TA1", "value": "functionally active"}, {"measurement": "number of lung CD4+ cells", "setting": "[1]; [3]", "value": "increase; also recorded: significantly increased"}, {"measurement": "number of lung CD8+ cells", "setting": "[1]; [3]", "value": "increase; also recorded: significantly increased"}, {"measurement": "number of lung neutrophils", "setting": "[1]; [3]", "value": "significantly increased"}, {"measurement": "total neutrophils", "setting": "[1]; BMT mouse model, TA1 treatment after Aspergillus infection", "value": "increase"}, {"measurement": "absolute number of circulating lymphocytes", "setting": "[1]; after TA1 treatment", "value": "significantly increases"}, {"measurement": "absolute number of circulating neutrophils", "setting": "[1]; after TA1 treatment", "value": "significantly increases"}]}
